Measurements from the supplement of paper PMC10307832.

What was measured:
Assay in all cases: relative viability (nuclei count vs DMSO), 5 days (fraction); higher = more cells survive
LOU-NH91 = system: LOU-NH91
Procedure, shortened: (§1)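 Lung cancer cell lines were seeded in 1536-well plates and dosed by pin tool the next day, with either a single drug or a fixed anchor-drug dose combined with five library-drug doses (not always all listed) spaced in √10 steps. Five days later, one step fixed the cells and stained their nuclei (final 0.05% Triton X-100, 1% formaldehyde, 1 ug/ml Hoechst), and nuclei were counted on 4× images. Relative viability is the nuclei count in treated wells divided by the count in vehicle wells, and each value is the median of duplicate plates.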

NCI-H1648 = system: NCI-H1648
Procedure, shortened: as §1

NCI-H2009 = system: NCI-H2009
Procedure, shortened: as §1

NCI-H2405 = system: NCI-H2405
Procedure, shortened: as §1

NCI-H647 = system: NCI-H647
Procedure, shortened: as §1

Structure (SMILES): CCNC(=O)c1noc(-c2cc(C(C)C)c(O)cc2O)c1-c1ccc(CN2CCOCC2)cc1 [Luminespib] + Nc1nc2[nH]cc(CCc3ccc(C(=O)N[C@@H](CCC(=O)O)C(=O)O)cc3)c2c(=O)[nH]1 [Pemetrexed] (partner 0.2 µM)
- relative viability (LOU-NH91; first compound 0.002 µM): 0.426
- relative viability (LOU-NH91; first compound 0.006325 µM): 0.36
- relative viability (LOU-NH91; first compound 0.02 µM): 0.539
- relative viability (LOU-NH91; first compound 0.06325 µM): 0.339
- relative viability (LOU-NH91; first compound 0.2 µM): 0.324
- relative viability (NCI-H1648; first compound 0.002 µM): 0.753
- relative viability (NCI-H1648; first compound 0.006325 µM): 0.683
- relative viability (NCI-H1648; first compound 0.02 µM): 0.899
- relative viability (NCI-H1648; first compound 0.06325 µM): 0.749
- relative viability (NCI-H1648; first compound 0.2 µM): 0.267
- relative viability (NCI-H2009; first compound 0.002 µM): 1.16
- relative viability (NCI-H2009; first compound 0.006325 µM): 0.973
- relative viability (NCI-H2009; first compound 0.02 µM): 1.17
- relative viability (NCI-H2009; first compound 0.06325 µM): 0.901
- relative viability (NCI-H2009; first compound 0.2 µM): 0.0692
- relative viability (NCI-H2405; first compound 0.002 µM): 1.08
- relative viability (NCI-H2405; first compound 0.02 µM): 0.915
- relative viability (NCI-H2405; first compound 0.06325 µM): 0.183
- relative viability (NCI-H2405; first compound 0.2 µM): 0.179
- relative viability (NCI-H647; first compound 0.002 µM): 0.202
- relative viability (NCI-H647; first compound 0.006325 µM): 0.189
- relative viability (NCI-H647; first compound 0.02 µM): 0.193
- relative viability (NCI-H647; first compound 0.06325 µM): 0.106
- relative viability (NCI-H647; first compound 0.2 µM): 0.0832

Structure (SMILES): Cc1csc(=NC2CCCCC2)n1/N=C/c1ccc(O)c(O)c1O [MIM1] + CC(=O)c1c(C)c2cnc(Nc3ccc(N4CCNCC4)cn3)nc2n(C2CCCC2)c1=O [Palbociclib] (partner 0.5 µM)
- relative viability (LOU-NH91; first compound 0.2 µM): 0.524
- relative viability (LOU-NH91; first compound 0.6325 µM): 0.569
- relative viability (LOU-NH91; first compound 2 µM): 0.516
- relative viability (LOU-NH91; first compound 6.325 µM): 0.499
- relative viability (LOU-NH91; first compound 20 µM): 0.36
- relative viability (NCI-H1648; first compound 0.2 µM): 0.262
- relative viability (NCI-H1648; first compound 0.6325 µM): 0.284
- relative viability (NCI-H1648; first compound 2 µM): 0.311
- relative viability (NCI-H1648; first compound 6.325 µM): 0.276
- relative viability (NCI-H1648; first compound 20 µM): 0.248
- relative viability (NCI-H2009; first compound 0.2 µM): 0.288
- relative viability (NCI-H2009; first compound 0.6325 µM): 0.266
- relative viability (NCI-H2009; first compound 2 µM): 0.331
- relative viability (NCI-H2009; first compound 6.325 µM): 0.167
- relative viability (NCI-H2009; first compound 20 µM): 0.122
- relative viability (NCI-H2405; first compound 0.2 µM): 0.512
- relative viability (NCI-H2405; first compound 0.6325 µM): 0.549
- relative viability (NCI-H2405; first compound 2 µM): 0.605
- relative viability (NCI-H2405; first compound 6.325 µM): 0.383
- relative viability (NCI-H2405; first compound 20 µM): 0.351
- relative viability (NCI-H647; first compound 0.2 µM): 0.395
- relative viability (NCI-H647; first compound 0.6325 µM): 0.404
- relative viability (NCI-H647; first compound 2 µM): 0.381
- relative viability (NCI-H647; first compound 6.325 µM): 0.338
- relative viability (NCI-H647; first compound 20 µM): 0.0937

Structure (SMILES): Cc1csc(=NC2CCCCC2)n1/N=C/c1ccc(O)c(O)c1O [MIM1] + Nc1nc2[nH]cc(CCc3ccc(C(=O)N[C@@H](CCC(=O)O)C(=O)O)cc3)c2c(=O)[nH]1 [Pemetrexed] (partner 0.2 µM)
- relative viability (LOU-NH91; first compound 0.2 µM): 0.335
- relative viability (LOU-NH91; first compound 0.6325 µM): 0.466
- relative viability (LOU-NH91; first compound 2 µM): 0.383
- relative viability (LOU-NH91; first compound 6.325 µM): 0.403
- relative viability (LOU-NH91; first compound 20 µM): 0.285
- relative viability (NCI-H1648; first compound 0.2 µM): 0.874
- relative viability (NCI-H1648; first compound 0.6325 µM): 0.688
- relative viability (NCI-H1648; first compound 2 µM): 0.584
- relative viability (NCI-H1648; first compound 6.325 µM): 0.544
- relative viability (NCI-H1648; first compound 20 µM): 0.455
- relative viability (NCI-H2009; first compound 0.2 µM): 1.03
- relative viability (NCI-H2009; first compound 0.6325 µM): 1.05
- relative viability (NCI-H2009; first compound 2 µM): 1.09
- relative viability (NCI-H2009; first compound 6.325 µM): 0.916
- relative viability (NCI-H2009; first compound 20 µM): 0.884
- relative viability (NCI-H2405; first compound 0.2 µM): 0.945
- relative viability (NCI-H2405; first compound 0.6325 µM): 0.98
- relative viability (NCI-H2405; first compound 2 µM): 1.17
- relative viability (NCI-H2405; first compound 6.325 µM): 0.752
- relative viability (NCI-H2405; first compound 20 µM): 0.584
- relative viability (NCI-H647; first compound 0.2 µM): 0.187
- relative viability (NCI-H647; first compound 0.6325 µM): 0.186
- relative viability (NCI-H647; first compound 2 µM): 0.178
- relative viability (NCI-H647; first compound 6.325 µM): 0.162
- relative viability (NCI-H647; first compound 20 µM): 0.117

Structure (SMILES): Cc1cn(-c2cc(NC(=O)c3ccc(C)c(Nc4nccc(-c5cccnc5)n4)c3)cc(C(F)(F)F)c2)cn1 [Nilotinib] + CC(=O)c1c(C)c2cnc(Nc3ccc(N4CCNCC4)cn3)nc2n(C2CCCC2)c1=O [Palbociclib] (partner 0.5 µM)
- relative viability (LOU-NH91; first compound 0.001 µM): 0.51
- relative viability (LOU-NH91; first compound 0.003162 µM): 0.543
- relative viability (LOU-NH91; first compound 0.01 µM): 0.48
- relative viability (LOU-NH91; first compound 0.03162 µM): 0.535
- relative viability (LOU-NH91; first compound 0.1 µM): 0.586
- relative viability (NCI-H1648; first compound 0.001 µM): 0.244
- relative viability (NCI-H1648; first compound 0.003162 µM): 0.319
- relative viability (NCI-H1648; first compound 0.01 µM): 0.294
- relative viability (NCI-H1648; first compound 0.03162 µM): 0.254
- relative viability (NCI-H1648; first compound 0.1 µM): 0.268
- relative viability (NCI-H2009; first compound 0.001 µM): 0.21
- relative viability (NCI-H2009; first compound 0.003162 µM): 0.191
- relative viability (NCI-H2009; first compound 0.01 µM): 0.193
- relative viability (NCI-H2009; first compound 0.03162 µM): 0.211
- relative viability (NCI-H2009; first compound 0.1 µM): 0.191
- relative viability (NCI-H2405; first compound 0.001 µM): 0.493
- relative viability (NCI-H2405; first compound 0.003162 µM): 0.485
- relative viability (NCI-H2405; first compound 0.01 µM): 0.529
- relative viability (NCI-H2405; first compound 0.03162 µM): 0.467
- relative viability (NCI-H2405; first compound 0.1 µM): 0.404
- relative viability (NCI-H647; first compound 0.001 µM): 0.384
- relative viability (NCI-H647; first compound 0.003162 µM): 0.382
- relative viability (NCI-H647; first compound 0.01 µM): 0.468
- relative viability (NCI-H647; first compound 0.03162 µM): 0.266
- relative viability (NCI-H647; first compound 0.1 µM): 0.26
